Columns and labels:
[1] = tested on: D-SA; assay: binding of D-biotin to D-SA, by mirror-image symmetry from L-biotin/L-SA ITC; settings: orthogonality, inferred by mirror-image symmetry
Excerpt: As detailed herein, mirror-image SA and biotin (D-SA/L-biotin) offer an elegant solution to circumvent the limitations encountered with L-SA/D-biotin systems. For example, D-proteins are inert to L-proteases and therefore cannot be digested for MHC presentation to the immune system. […] Therefore, it is proposed that D-SA/L-biotin can be used as a biotin orthogonal streptaviding system (BOSS). Without wishing to be bound by theory, it is hypothesized that the orthogonality of BOSS, along with D-SA's low immunogenicity, will overcome the limitations of natural SA/biotin.
First, a control isothermal titration calorimetry (ITC) experiment was performed. […] This titration data was fit using Origin software to calculate binding stoichiometry (N=0.97±0.003 sites) and enthalpy (ΔH=−27.72±0.18 kcal/mol), as shown in FIG. 2A.

[2] = target: T1, L-SA (recombinant SA, Novus Biologicals) (Streptomyces avidinii, UniProt P22629); assay: isothermal titration calorimetry (ITC), biotin enantiomer titrated into recombinant L-SA; format: binding; settings: fit using Origin software
T1 construct: purchased Novus Biologicals
T1 sequence (P22629 37-163): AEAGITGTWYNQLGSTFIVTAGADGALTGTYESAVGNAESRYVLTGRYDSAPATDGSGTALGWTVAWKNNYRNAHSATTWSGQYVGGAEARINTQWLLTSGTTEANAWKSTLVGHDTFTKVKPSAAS
Experimental: First, a control isothermal titration calorimetry (ITC) experiment was performed.

O=C(O)CCCC[C@@H]1SC[C@@H]2NC(=O)N[C@@H]21 [D-biotin]
binding to D-SA [1]: minimal binding
enthalpy (ΔH) [2]: -27.72 ± 0.18 kcal/mol
